The numbers were not newly measured in patent US8143297B2, “Heterocyclic derivatives as modulators of ion channels” (Vertex Pharmaceuticals Incorporated, priority 2008, dated 2012), which cites them from elsewhere.

Among the targets are NaV1.3 (Homo sapiens, UniProt Q9NY46); NaV1.1 (Homo sapiens, UniProt P35498); NaV1.9 (Homo sapiens, UniProt Q9UI33); NaV1.6 (Homo sapiens, UniProt Q9UQD0); NaV1.8 (Homo sapiens, UniProt Q9Y5Y9); NaV1.2 (Homo sapiens, UniProt Q99250).
Common to all, as to details: read-out: TTX IC50

Some results are limits rather than exact numbers.

Chain of NaV1.6 (Q9UQD0 whole entry, looked up): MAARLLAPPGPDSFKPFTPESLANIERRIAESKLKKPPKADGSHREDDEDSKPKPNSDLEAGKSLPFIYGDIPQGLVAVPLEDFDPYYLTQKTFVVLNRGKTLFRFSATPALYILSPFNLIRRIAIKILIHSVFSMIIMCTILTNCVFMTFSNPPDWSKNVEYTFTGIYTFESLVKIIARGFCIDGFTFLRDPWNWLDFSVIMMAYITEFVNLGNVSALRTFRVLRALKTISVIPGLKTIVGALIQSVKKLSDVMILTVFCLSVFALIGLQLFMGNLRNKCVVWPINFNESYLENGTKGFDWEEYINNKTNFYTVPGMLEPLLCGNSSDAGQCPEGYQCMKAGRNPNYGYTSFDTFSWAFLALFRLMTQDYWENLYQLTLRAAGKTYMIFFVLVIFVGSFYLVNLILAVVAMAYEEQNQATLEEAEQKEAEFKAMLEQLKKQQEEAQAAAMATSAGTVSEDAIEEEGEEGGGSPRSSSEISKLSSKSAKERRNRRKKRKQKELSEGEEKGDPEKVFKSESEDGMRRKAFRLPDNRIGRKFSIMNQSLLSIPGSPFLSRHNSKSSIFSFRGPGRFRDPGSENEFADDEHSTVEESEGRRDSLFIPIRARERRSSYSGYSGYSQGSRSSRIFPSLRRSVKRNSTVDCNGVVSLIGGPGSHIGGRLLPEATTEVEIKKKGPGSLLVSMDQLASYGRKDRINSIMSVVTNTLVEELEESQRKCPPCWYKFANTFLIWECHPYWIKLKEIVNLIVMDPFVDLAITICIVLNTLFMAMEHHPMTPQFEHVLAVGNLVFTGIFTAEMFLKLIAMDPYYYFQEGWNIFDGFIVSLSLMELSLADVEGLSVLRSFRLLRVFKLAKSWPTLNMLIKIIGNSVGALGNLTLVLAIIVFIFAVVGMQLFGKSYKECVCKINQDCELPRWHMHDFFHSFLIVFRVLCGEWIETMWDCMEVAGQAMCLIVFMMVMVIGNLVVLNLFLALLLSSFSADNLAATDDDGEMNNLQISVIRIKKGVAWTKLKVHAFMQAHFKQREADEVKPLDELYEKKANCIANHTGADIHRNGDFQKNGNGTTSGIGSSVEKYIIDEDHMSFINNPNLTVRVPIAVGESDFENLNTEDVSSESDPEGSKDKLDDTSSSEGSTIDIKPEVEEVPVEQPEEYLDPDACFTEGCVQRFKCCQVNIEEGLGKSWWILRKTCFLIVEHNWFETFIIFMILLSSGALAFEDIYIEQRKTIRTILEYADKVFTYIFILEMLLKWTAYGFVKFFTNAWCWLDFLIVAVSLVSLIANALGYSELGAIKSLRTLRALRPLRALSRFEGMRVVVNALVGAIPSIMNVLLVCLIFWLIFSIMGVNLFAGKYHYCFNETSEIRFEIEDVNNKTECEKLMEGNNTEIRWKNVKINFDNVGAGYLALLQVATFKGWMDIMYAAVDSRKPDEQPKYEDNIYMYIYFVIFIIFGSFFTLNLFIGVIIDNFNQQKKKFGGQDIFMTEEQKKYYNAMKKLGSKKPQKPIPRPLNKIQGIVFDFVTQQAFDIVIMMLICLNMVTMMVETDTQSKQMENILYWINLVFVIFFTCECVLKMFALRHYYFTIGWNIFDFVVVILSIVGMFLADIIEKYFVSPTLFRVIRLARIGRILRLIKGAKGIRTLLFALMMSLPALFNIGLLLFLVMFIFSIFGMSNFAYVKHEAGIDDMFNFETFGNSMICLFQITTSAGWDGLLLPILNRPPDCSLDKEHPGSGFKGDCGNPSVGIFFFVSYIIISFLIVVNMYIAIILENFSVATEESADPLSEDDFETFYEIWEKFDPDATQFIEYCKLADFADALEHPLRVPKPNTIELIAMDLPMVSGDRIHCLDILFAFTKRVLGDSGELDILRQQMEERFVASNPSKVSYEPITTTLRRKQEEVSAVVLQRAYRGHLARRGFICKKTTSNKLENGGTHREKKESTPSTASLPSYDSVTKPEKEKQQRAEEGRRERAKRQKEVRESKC
Chain of NaV1.9 (Q9UI33 whole entry, looked up): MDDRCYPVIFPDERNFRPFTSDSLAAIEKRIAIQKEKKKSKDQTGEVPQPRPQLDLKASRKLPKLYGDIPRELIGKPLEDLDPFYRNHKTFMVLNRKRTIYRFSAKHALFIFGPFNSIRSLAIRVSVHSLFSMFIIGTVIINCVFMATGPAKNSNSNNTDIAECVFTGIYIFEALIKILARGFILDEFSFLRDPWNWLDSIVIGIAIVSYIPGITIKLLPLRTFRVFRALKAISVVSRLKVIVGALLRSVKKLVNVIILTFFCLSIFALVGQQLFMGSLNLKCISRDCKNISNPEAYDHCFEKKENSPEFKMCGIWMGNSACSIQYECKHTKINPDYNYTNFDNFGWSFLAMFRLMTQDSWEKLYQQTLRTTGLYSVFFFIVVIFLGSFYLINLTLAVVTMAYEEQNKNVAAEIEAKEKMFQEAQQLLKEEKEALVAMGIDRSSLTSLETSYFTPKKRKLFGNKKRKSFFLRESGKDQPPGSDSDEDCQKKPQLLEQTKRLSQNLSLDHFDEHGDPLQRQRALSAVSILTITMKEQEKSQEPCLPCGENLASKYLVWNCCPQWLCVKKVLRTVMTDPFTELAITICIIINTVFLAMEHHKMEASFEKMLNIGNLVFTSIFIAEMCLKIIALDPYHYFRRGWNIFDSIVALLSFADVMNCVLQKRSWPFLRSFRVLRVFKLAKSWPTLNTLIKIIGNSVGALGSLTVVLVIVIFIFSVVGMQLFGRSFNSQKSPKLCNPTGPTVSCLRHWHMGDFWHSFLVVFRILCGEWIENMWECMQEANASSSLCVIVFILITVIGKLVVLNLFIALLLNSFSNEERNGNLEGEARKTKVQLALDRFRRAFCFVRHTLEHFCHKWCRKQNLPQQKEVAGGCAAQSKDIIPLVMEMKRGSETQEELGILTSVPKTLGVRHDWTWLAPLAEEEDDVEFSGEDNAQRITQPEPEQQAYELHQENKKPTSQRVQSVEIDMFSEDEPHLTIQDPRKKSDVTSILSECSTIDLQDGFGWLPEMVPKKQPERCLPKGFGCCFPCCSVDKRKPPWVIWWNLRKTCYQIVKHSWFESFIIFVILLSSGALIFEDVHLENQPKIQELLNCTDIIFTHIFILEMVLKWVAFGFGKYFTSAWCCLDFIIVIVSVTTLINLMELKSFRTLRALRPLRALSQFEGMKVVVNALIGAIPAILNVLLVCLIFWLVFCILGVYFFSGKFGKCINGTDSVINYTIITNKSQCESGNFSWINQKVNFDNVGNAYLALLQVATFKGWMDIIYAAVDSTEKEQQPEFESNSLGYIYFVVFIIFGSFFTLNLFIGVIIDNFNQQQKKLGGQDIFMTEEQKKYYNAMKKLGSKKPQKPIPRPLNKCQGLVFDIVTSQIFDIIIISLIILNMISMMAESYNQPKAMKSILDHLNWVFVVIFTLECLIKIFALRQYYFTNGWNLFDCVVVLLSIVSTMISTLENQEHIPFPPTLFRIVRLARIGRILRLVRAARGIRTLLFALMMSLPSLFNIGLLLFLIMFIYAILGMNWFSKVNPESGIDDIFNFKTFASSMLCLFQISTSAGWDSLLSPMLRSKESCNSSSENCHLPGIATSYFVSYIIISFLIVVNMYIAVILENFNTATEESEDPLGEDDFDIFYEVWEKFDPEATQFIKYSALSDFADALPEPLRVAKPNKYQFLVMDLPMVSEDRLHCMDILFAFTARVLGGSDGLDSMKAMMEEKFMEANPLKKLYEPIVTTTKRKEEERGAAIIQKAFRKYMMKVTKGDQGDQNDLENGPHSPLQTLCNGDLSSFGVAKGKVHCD

In the case of `NC1=N[C@H](O)[C@H]2[C@H]3O[C@]4(O)O[C@@H]([C@@H](O)[C@@]2(N1)[C@@H]4O)[C@]3(O)CO` [TTX, tetrodotoxin], the IC50 (usually the concentration at which inhibition is half-maximal) at NaV1.3 is 15 nM; at NaV1.1 it was 10 nM; at NaV1.9, 1000 nM; on NaV1.6 it was 6 nM; on NaV1.8, over 50000 nM; on NaV1.2, 10 nM.
